Measured values: patent US20020031509A1, “Pharmaceutical composition and method for its manufacture” (priority 1999, published 2002)

Tested on: P. aeruginosa
Assay: Experiment 2 screening for antibiotic effect, P. aeruginosa
Type: cell-based, Pseudomonas aeruginosa
Settings: 24 h post inoculation
Procedure: The second experiment consisted of a screening for antibiotic effect of individual and combined substances. The materials that were used were:
The method involved the use of a microtiter (ELISA) plate (12×8 wells, i.e 96 wells in total, obtained from NUNC) with serial dilutions of venoms and bacteria at two concentrations.
The incubation time was 24 hours. OD was monitored at 650 nm every hour the first 7-8 hours, and then at 20 hours and 24 hours post inoculation. Each well was given 200 μl of diluted venom plus bacteria.
Three-dimensional diagrams shown as FIG. 3 to 11 summarize the above results. Observe that in each diagram serge 1 (Z axis) is substance BF, serie 2 is NK, 3 is OH, 4 is BA, 5 is TA, 6 is OH+BA, 7 is OH+TA and serie 8 is reference antibiotic. On the X-axis 1-5 is concentration of substance: 500, 250, 125, 62.5 och 31.2 mikrog/ml for substances (N.B. OH+BA and OH+TA have the double concentrations, i.e. the concentration is 1000, 500, 250, 125 and 62.5 ), and 100, 50, 25, 12.5, 6.25 mikrog/ml for reference antibiotic. The name on the diagrams is the tested bacteria strain (initials only given) and time is 7 hours after incubation start at which the substance was added. The combined OH+BA and OH+TA were obtained by mixing the single venoms in the same proportions.

## NC[C@H]1O[C@H](O[C@H]2[C@H](O)[C@@H](O[C@H]3O[C@H](CO)[C@@H](O)[C@H](N)[C@H]3O)[C@H](N)C[C@@H]2N)[C@H](O)[C@@H](O)[C@@H]1O [Kanamycin]
  antibacterial effect: no effect
